Test system: K98450-129-R-PDC complex spheroid growth, percent test/control
Experiment: Anticancer human tumor K98450-129-R-PDC patient-derived colon adenocarcinoma cell line growth inhibition [RAS]
Settings: for IC50: curve of first compound; for viability, T/C: stronger effect = lower value
From the text: RAS pathway inhibitors in Combinations in Complex Spheroids
A high-throughput screen of multi-cell type tumor spheroids was designed to identify active combinations of RAS pathway inhibitors and targeted small molecules. Complex spheroids include a stromal component modeled by human endothelial cells (HUVEC) and fibroblasts modeled by human mesenchymal stem cells (MSCs). The concentration ranges selected for each drug and investigational agent were based upon clinically achievable concentrations if the clinical Cmax of the agent was known.
Compounds. The drugs and investigational agents: abemaciclib (NSC768073), cobimetinib (NSC768068), divarasib (GDC6063, NSC841802), docetaxel (NSC628503), GDC-1971 (RLY-1971, NSC841576), gemcitabine (NSC613327), inavolisib (NSC800729), ipatasertib (NSC767898), KB-0742 (NSC834161), MRTX-1133 (NSC836407), osimertinib (NSC779217), RMC-4630 (NSC839698), RMC-6236 (NSC851965), RMC-6291 (NSC852671), Ro-3306 (NSC812927), sapanisertib (NSC764658), SN-38 (NSC673596), staurosporine (NSC755774), SY5609 (NSC837396), and tovorafenib (DAY101, NSC766906), were obtained from the National Cancer Institute (NCI) Developmental Therapeutics Program Chemical Repository. The FDA-approved anticancer drug set is available from the NCI Developmental Therapeutics Program. […] The stock solutions were prepared in dimethyl sulfoxide (DMSO, Sigma-Aldrich, St. Louis, MO, cat. D2650) at 800-fold the tested concentration and stored at -70 degrees C prior to their use. All drugs and investigational agents were tested over a range starting from a high concentration at or near the clinical Cmax and decreasing in half-log increments. If the clinical Cmax for an agent had not been determined, the highest concentration tested was 10 microM.
Cell Culture. All cells were maintained in an incubator at 37 degrees C and 5% CO2 with 95% humidity. The PDC lines were cultured according to standard operating procedures established by the NCI PDMR. All PDCs were thawed and cultured in Matrigel-coated flasks prepared with a working solution of 1X Ham's F-12 nutrient mix, without supplementation (Invitrogen, Waltham, MA, cat. 11765054), 100 U/mL penicillin-streptomycin (Invitrogen, cat. 15140122), and 2.5% Matrigel (Corning Inc., Corning, NY, cat. 354248) for the first three passages. The 362531-283-R-J2-PDC and 782815-120-R-J1-PDC lines were cultured in 6C/Colon 1B media, which includes advanced DMEM/F-12 (Thermo Fisher Scientific, cat. 12634028), 10 mM HEPES (Thermo Fisher Scientific, cat. 15630080), 1X GlutaMAX supplement (Thermo Fisher Scientific, cat. 35050061), 0.1 mg/mL primocin (InvivoGen, San Diego, CA, cat. ant-pm-2), 10% defined fetal bovine serum, heat inactivated (HyClone Laboratories Inc., Logan, UT, cat. SH30070.03HI), 50% L-WRN conditioned media (ATCC, cat. CRL-3276), 1.25 mM N-Acetyl-L-cysteine (Sigma-Aldrich, cat. A9165), 10 mM nicotinamide (Sigma-Aldrich, cat. N0636), 1X B-27 supplement (Thermo Fisher Scientific, cat. 17504044), 1X N-2 supplement (Thermo Fisher Scientific, cat. 17502048), 50 ng/mL human EGF (Thermo Fisher Scientific, cat. PHG0311), and 10 microM Y-27632 dihydrochloride (Tocris Bioscience, cat. 1254). The K12877-001-R-J1-PDC line was cultured in 6I media, which includes all 6C/Colon 1B media plus 10 ng/mL human FGF-10 (PeproTech, cat. 100-26), 1 ng/mL human FGF-2 (PeproTech, cat. 100-18B), 1 µM prostaglandin E2 (Tocris Bioscience, cat. 2296), […] hydrocortisone (Sigma-Aldrich, cat. H4001), and […] bovine insulin (Sigma-Aldrich, cat. I6634). The K86415-001-R-J1-PDC line was cultured in 6D media, which includes all 6C/Colon 1B media components minus the L-WRN conditioned media. The 485176-168-R4-J1-PDC was cultured in PANC media, which includes all 6C/Colon 1B media plus 100 ng/mL human FGF-10 (PeproTech, cat. 100-26), 500 nM SB-431542 (Selleckchem, cat. S1067), and 10 nM gastrin (Tocris Bioscience, cat. 3006). […]

[1] = second compound 0.0316 µM, first compound 0.0316 µM
[2] = second compound 0.0316 µM, first compound 0.1 µM
[3] = second compound 0.1 µM, first compound 0.0316 µM
[4] = second compound 0.1 µM, first compound 0.1 µM
[5] = second compound 0.316 µM, first compound 0.0316 µM
[6] = second compound 0.316 µM, first compound 0.1 µM
[7] = second compound 1 µM, first compound 0.0316 µM
[8] = second compound 1 µM, first compound 0.1 µM
[9] = second compound 3.16 µM, first compound 0.0316 µM
[10] = second compound 3.16 µM, first compound 0.1 µM
[11] = second compound 10 µM, first compound 0.0316 µM
[12] = second compound 10 µM, first compound 0.1 µM
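Further: spheroids exposed to agents for seven days before the viability readout.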
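Wherever viability, T/C is given: luminescence used as a proxy for viable cell amount.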

## CC(C)n1nc(-c2ccc3oc(N)nc3c2)c2c(N)ncnc21 + C#Cc1c(F)ccc2cc(O)cc(-c3ncc4c(N5CC6CCC(C5)N6)nc(OCC56CCCN5CC(F)C6)nc4c3F)c12
Second compound 0.0316 µM
  IC50: > 0.1 µM
Second compound 0.1 µM
  IC50: > 0.1 µM
Second compound 0.316 µM
  IC50: > 0.1 µM
Second compound 1 µM
  IC50: > 0.1 µM
Second compound 3.16 µM
  IC50: > 0.1 µM
Second compound 10 µM
  IC50: > 0.1 µM
Second compound 0.0316 µM, first compound 0.000316 µM
  viability, T/C: 110%
Second compound 0.0316 µM, first compound 0.001 µM
  viability, T/C: 104%
Second compound 0.0316 µM, first compound 0.00316 µM
  viability, T/C: 101%
Second compound 0.0316 µM, first compound 0.01 µM
  viability, T/C: 98.4%
[1]
  viability, T/C: 86.5%
[2]
  viability, T/C: 78.3%
Second compound 0.1 µM, first compound 0.000316 µM
  viability, T/C: 114%
Second compound 0.1 µM, first compound 0.001 µM
  viability, T/C: 103%
Second compound 0.1 µM, first compound 0.00316 µM
  viability, T/C: 102%
Second compound 0.1 µM, first compound 0.01 µM
  viability, T/C: 95.9%
[3]
  viability, T/C: 89.2%
[4]
  viability, T/C: 74.4%
Second compound 0.316 µM, first compound 0.000316 µM
  viability, T/C: 109%
Second compound 0.316 µM, first compound 0.001 µM
  viability, T/C: 105%
Second compound 0.316 µM, first compound 0.00316 µM
  viability, T/C: 104%
Second compound 0.316 µM, first compound 0.01 µM
  viability, T/C: 98.8%
[5]
  viability, T/C: 93.1%
[6]
  viability, T/C: 71.9%
Second compound 1 µM, first compound 0.000316 µM
  viability, T/C: 106%
Second compound 1 µM, first compound 0.001 µM
  viability, T/C: 107%
Second compound 1 µM, first compound 0.00316 µM
  viability, T/C: 95.1%
Second compound 1 µM, first compound 0.01 µM
  viability, T/C: 93.8%
[7]
  viability, T/C: 82.9%
[8]
  viability, T/C: 74.7%
Second compound 3.16 µM, first compound 0.000316 µM
  viability, T/C: 95.6%
Second compound 3.16 µM, first compound 0.001 µM
  viability, T/C: 94.8%
Second compound 3.16 µM, first compound 0.00316 µM
  viability, T/C: 92%
Second compound 3.16 µM, first compound 0.01 µM
  viability, T/C: 84.4%
[9]
  viability, T/C: 80.1%
[10]
  viability, T/C: 66.7%
Second compound 10 µM, first compound 0.000316 µM
  viability, T/C: 84.9%
Second compound 10 µM, first compound 0.001 µM
  viability, T/C: 82.9%
Second compound 10 µM, first compound 0.00316 µM
  viability, T/C: 87.4%
Second compound 10 µM, first compound 0.01 µM
  viability, T/C: 77%
[11]
  viability, T/C: 69.6%
[12]
  viability, T/C: 62.2%

## C[C@@H](NC(=O)c1ncnc(N)c1Cl)c1ncc(C(=O)Nc2cc(C(F)(F)F)c(Cl)cn2)s1 + C#Cc1c(F)ccc2cc(O)cc(-c3ncc4c(N5CC6CCC(C5)N6)nc(OCC56CCCN5CC(F)C6)nc4c3F)c12
Second compound 0.0316 µM
  IC50: > 10 µM
Second compound 0.1 µM
  IC50: > 10 µM
Second compound 0.316 µM
  IC50: > 10 µM
Second compound 1 µM
  IC50: > 10 µM
Second compound 3.16 µM
  IC50: > 10 µM
Second compound 10 µM
  IC50: > 10 µM
[1]
  viability, T/C: 114%
[2]
  viability, T/C: 117%
Second compound 0.0316 µM, first compound 0.316 µM
  viability, T/C: 118%
Second compound 0.0316 µM, first compound 1 µM
  viability, T/C: 126%
Second compound 0.0316 µM, first compound 3.16 µM
  viability, T/C: 129%
Second compound 0.0316 µM, first compound 10 µM
  viability, T/C: 103%
[3]
  viability, T/C: 115%
[4]
  viability, T/C: 126%
Second compound 0.1 µM, first compound 0.316 µM
  viability, T/C: 130%
Second compound 0.1 µM, first compound 1 µM
  viability, T/C: 127%
Second compound 0.1 µM, first compound 3.16 µM
  viability, T/C: 128%
Second compound 0.1 µM, first compound 10 µM
  viability, T/C: 106%
[5]
  viability, T/C: 112%
[6]
  viability, T/C: 121%
Second compound 0.316 µM, first compound 0.316 µM
  viability, T/C: 120%
Second compound 0.316 µM, first compound 1 µM
  viability, T/C: 127%
Second compound 0.316 µM, first compound 3.16 µM
  viability, T/C: 130%
Second compound 0.316 µM, first compound 10 µM
  viability, T/C: 106%
[7]
  viability, T/C: 114%
[8]
  viability, T/C: 115%
Second compound 1 µM, first compound 0.316 µM
  viability, T/C: 122%
Second compound 1 µM, first compound 1 µM
  viability, T/C: 112%
Second compound 1 µM, first compound 3.16 µM
  viability, T/C: 126%
Second compound 1 µM, first compound 10 µM
  viability, T/C: 102%
[9]
  viability, T/C: 100%
[10]
  viability, T/C: 108%
Second compound 3.16 µM, first compound 0.316 µM
  viability, T/C: 115%
Second compound 3.16 µM, first compound 1 µM
  viability, T/C: 115%
Second compound 3.16 µM, first compound 3.16 µM
  viability, T/C: 114%
Second compound 3.16 µM, first compound 10 µM
  viability, T/C: 92.7%
[11]
  viability, T/C: 95.8%
[12]
  viability, T/C: 108%
Second compound 10 µM, first compound 0.316 µM
  viability, T/C: 114%
Second compound 10 µM, first compound 1 µM
  viability, T/C: 100%
Second compound 10 µM, first compound 3.16 µM
  viability, T/C: 111%
Second compound 10 µM, first compound 10 µM
  viability, T/C: 86.2%

From PubChem BioAssay AID2060891 (Molecular Pharmacology Branch, DTP, NCI, 2025)
